Like-named read-outs stand apart in the source and are kept apart here.
System: Triple negative breast cancer cell line CAL51
Assay: Cell Titer Glo proliferation assay, CAL51
Assay type: cell-based
Settings: Homo sapiens, CAL-51, read-out: Act. Level
Experimental: Cell Titer Glo Proliferation Assay.
Triple negative breast cancer cell line CAL51 was purchased from DSMZ. […] Allcell lines were maintained in growth media consisting of 90% high glucose Dulbecco's Modified Eagle Medium or RPMI1640 (Invitrogen), 10% fetal bovine serum (Hyclone), and 2 mM L-glutamine (Invitrogen). […] After overnight culture, compound stock (30 mM) was diluted serially in DMSO, further diluted in growth media, and was added to each well as a 10× concentrated solution in a volume of 11 μL, mixed, and allowed to incubate with cells. The compound vehicle (DMSO) was maintained at a final concentration of 0.2% in all wells. After 72 h, 100 μL of Cell Titer Glo solution (Promega) was added to each well of the 96-well plate. The plate was placed on a shaker for 2 minutes. After 10 minutes incubation, the luminescence signal was detected with Envision microplate reader (Perkin Elmer).

[1] = CAL51 cell proliferation, Cell Titer Glo
[2] = CAL51 cell proliferation (Table 1)

With `CNC(=O)c1ccc(-c2c[nH]c3nc(Nc4ccc(C(=O)NCCO)cc4OC)nc(OC4CCC4)c23)cc1` [Example 331, 4-(4-cyclobutoxy-5-(4-(methylcarbamoyl)phenyl)-7H-pyrrolo[2,3-d]pyrimidin-2-ylamino)-N-(2-hydroxyethyl)-3-methoxybenzamide] the IC50 [1] was 100 to 400 nM.
`CNC(=O)c1ccc(-c2c[nH]c3nc(Nc4ccc(C(=O)NC5COC5)cc4OC)nc(OC4CC(C#N)C4)c23)cc1` (centres unmarked) [Example 341, 4-(4-(3-cyanocyclobutoxy)-5-(4-(methylcarbamoyl)phenyl)-7H-pyrrolo[2,3-d]pyrimidin-2-ylamino)-3-methoxy-N-(oxetan-3-yl)benzamide] was tested, and the IC50 [1] was under 100 nM.
`CNC(=O)c1ccc(Nc2nc(O[C@H]3CCOC3)c3c(-c4cnn(C)c4)c[nH]c3n2)c(OC)c1` [Example 328, (S)-3-methoxy-N-methyl-4-(5-(1-methyl-1H-pyrazol-4-yl)-4-(tetrahydrofuran-3-yloxy)-7H-pyrrolo[2,3-d]pyrimidin-2-ylamino)benzamide] showed an IC50 [1] of under 100 nM.
`COCCOc1nc(Nc2ccc(C(=O)NC3COC3)cc2OC)nc2[nH]cc(-c3ccc4nc(C)oc4c3)c12` [Example 365, 3-methoxy-4-(4-(2-methoxyethoxy)-5-(2-methylbenzo[d]oxazol-6-yl)-7H-pyrrolo[2,3-d]pyrimidin-2-ylamino)-N-(oxetan-3-yl)benzamide] gave an IC50 [1] of under 100 nM.
In the case of `CNC(=O)c1ccc(Nc2nc(OC3CCC(O)CC3)c3c(-c4ccc5nc(C)oc5c4)c[nH]c3n2)c(OC)c1` (centres unmarked) [Example 137, 4-(4-((1r,4r)-4-hydroxycyclohexyloxy)-5-(2-methylbenzo[d]oxazol-6-yl)-7H-pyrrolo[2,3-d]pyrimidin-2-ylamino)-3-methoxy-N-methylbenzamide], the IC50 (CAL51 cell proliferation, activity level class of IC50) is reported as under 100 nM.
Compound `COc1nc(Nc2ccc(C(=O)N(C)C)cc2C)nc2[nH]cc(-c3cnn(C)c3)c12` [Example 398, 4-(4-methoxy-5-(1-methyl-1H-pyrazol-4-yl)-7H-pyrrolo[2,3-d]pyrimidin-2-ylamino)-N,N,3-trimethylbenzamide] has an IC50 [1] of 400 to 1000 nM.
`COc1cc(C(=O)NC2COC2)ccc1Nc1nc(OC)c2c(-c3cc(C)nc(Cl)c3)c[nH]c2n1` [Example 437, 4-(5-(2-chloro-6-methylpyridin-4-yl)-4-methoxy-7H-pyrrolo[2,3-d]pyrimidin-2-ylamino)-3-methoxy-N-(oxetan-3-yl)benzamide] gave an IC50 [2] of under 100 nM.
Work on `CCCc1cc(C(=O)NC)ccc1Nc1nc(OC2CCOCC2)c2c(-c3ccc4nc(C)oc4c3)c[nH]c2n1` [Example 436, N-methyl-4-(5-(2-methylbenzo[d]oxazol-6-yl)-4-(tetrahydro-2H-pyran-4-yloxy)-7H-pyrrolo[2,3-d]pyrimidin-2-ylamino)-3-propylbenzamide] yielded an IC50 [2] of under 100 nM.
Compound `CNC(=O)c1ccc(-c2c[nH]c3nc(Nc4ccc(C(=O)NC5COC5)cc4OC)nc(OC4CCC(C)(O)CC4)c23)cc1` (centres unmarked) [Example 337, 4-(4-((1s,4s)-4-hydroxy-4-methylcyclohexyloxy)-5-(4-(methylcarbamoyl)phenyl)-7H-pyrrolo[2,3-d]pyrimidin-2-ylamino)-3-methoxy-N-(oxetan-3-yl)benzamide] has an IC50 [1] of under 100 nM.
Work on `COc1cc(C(=O)N(C)C)ccc1Nc1nc(OC)c2c(-c3ccc4c(C)noc4c3)c[nH]c2n1` [Example 408, 3-methoxy-4-(4-methoxy-5-(3-methylbenzo[d]isoxazol-6-yl)-7H-pyrrolo[2,3-d]pyrimidin-2-ylamino)-N,N-dimethylbenzamide] yielded an IC50 [2] of 100 to 400 nM.
In the case of `CNC(=O)c1ccc(Nc2nc(OC3CCCC3)c3c(-c4cccc(N(C)C)c4)c[nH]c3n2)c(OC)c1` [Example 322, 4-(4-(cyclopentyloxy)-5-(3-(dimethylamino)phenyl)-7H-pyrrolo[2,3-d]pyrimidin-2-ylamino)-3-methoxy-N-methylbenzamide], the IC50 [1] is reported as 400 to 1000 nM.
Work on `COc1cc(C(=O)NC2CN(C)C2)ccc1Nc1nc(OC2CCOCC2)c2c(-c3ccc4nc(C)oc4c3)c[nH]c2n1` [Example 367, 3-methoxy-N-(1-methylazetidin-3-yl)4-(5-(2-methylbenzo[d]oxazol-6-yl)-4-(tetrahydro-2H-pyran-4-yloxy)-7H-pyrrolo[2,3-d]pyrimidin-2-ylamino)benzamide] yielded an IC50 [1] of 100 to 400 nM.
`COc1nc(Nc2ccc3[nH]ncc3c2C)nc2[nH]cc(-c3ccncc3)c12` [Example 414, 4-methoxy-N-(4-methyl-1H-indazol-5-yl)-5-(pyridin-4-yl)-7H-pyrrolo[2,3-d]pyrimidin-2-amine] gave an IC50 [2] of 1000 to 10000 nM.
`COc1nc(Nc2ccc3c(cnn3C)c2C)nc2[nH]cc(-c3ccncc3)c12` [Example 419, N-(1,4-dimethyl-1H-indazol-5-yl)-4-methoxy-5-(pyridin-4-yl)-7H-pyrrolo[2,3-d]pyrimidin-2-amine] gave an IC50 [2] of 100 to 400 nM.
For `COc1cc(C(=O)NC2CN(C)C2)ccc1Nc1nc(OC(C)(C)C)c2c(-c3ccc4nc(C)oc4c3)c[nH]c2n1` [Example 354, 4-(4-tert-butoxy-5-(2-methylbenzo[d]oxazol-6-yl)-7H-pyrrolo[2,3-d]pyrimidin-2-ylamino)-3-methoxy-N-(1-methylazetidin-3-yl)benzamide], the IC50 [1] was under 100 nM.
In the case of `COc1cc(C(=O)NC2COC2)ccc1Nc1nc(OC(C)(C)C)c2c(-c3ccc4nc(C)oc4c3)c[nH]c2n1` [Example 370, 4-(4-tert-butoxy-5-(2-methylbenzo[d]oxazol-6-yl)-7H-pyrrolo[2,3-d]pyrimidin-2-ylamino)-3-methoxy-N-(oxetan-3-yl)benzamide], the IC50 [1] is reported as under 100 nM.
Work on `COc1cc(C(=O)NC2COC2)ccc1Nc1nc(OC(C)C)c2c(-c3ccc4nc(C)oc4c3)c[nH]c2n1` [Example 362, 4-(4-isopropoxy-5-(2-methylbenzo[d]oxazol-6-yl)-7H-pyrrolo[2,3-d]pyrimidin-2-ylamino)-3-methoxy-N-(oxetan-3-yl)benzamide] yielded an IC50 [1] of 100 to 400 nM.
Compound `COc1cc(C(=O)N(C)C)ccc1Nc1nc(OC(C)C)c2c(-c3ccnc(F)c3)c[nH]c2n1` [Example 403, 4-(5-(2-fluoropyridin-4-yl)-4-isopropoxy-7H-pyrrolo[2,3-d]pyrimidin-2-ylamino)-3-methoxy-N,N-dimethylbenzamide] has an IC50 [2] of under 100 nM.
Work on `CCn1ncc(Nc2nc(OC3CCCC3)c3c(-c4ccc5nc(C)oc5c4)c[nH]c3n2)c1Cl` [Example 385, N-(5-chloro-1-ethyl-1H-pyrazol-4-yl)-4-(cyclopentyloxy)-5-(2-methylbenzo[d]oxazol-6-yl)-7H-pyrrolo[2,3-d]pyrimidin-2-amine] yielded an IC50 [1] of 100 to 400 nM.
In the case of `COc1nc(Nc2ccc(C(=O)N(C)C)cc2C)nc2[nH]cc(-c3ccnc(F)c3)c12` [Example 409, 4-(5-(2-fluoropyridin-4-yl)-4-methoxy-7H-pyrrolo[2,3-d]pyrimidin-2-ylamino)-N,N,3-trimethylbenzamide], the IC50 [2] is reported as 400 to 1000 nM.
With `CNC(=O)c1ccc(-c2c[nH]c3nc(Nc4ccc(C(=O)NC)cc4Cl)nc(OC4CCOCC4)c23)cc1` [Example 421, 3-chloro-N-methyl-4-(5-(4-(methylcarbamoyl)phenyl)-4-(tetrahydro-2H-pyran-4-yloxy)-7H-pyrrolo[2,3-d]pyrimidin-2-ylamino)benzamide] the IC50 [2] was under 100 nM.
Work on `COc1cc(C(=O)N2CC2C)ccc1Nc1nc(OC2CCCC2)c2c(-c3ccc4nc(C)oc4c3)c[nH]c2n1` [Example 335, (R)-(4-(4-(cyclopentyloxy)-5-(2-methylbenzo[d]oxazol-6-yl)-7H-pyrrolo[2,3-d]pyrimidin-2-ylamino)-3-methoxyphenyl)(2-methylaziridin-1-yl)methanone] yielded an IC50 [1] of 400 to 1000 nM.
With `COCCOc1nc(Nc2ccc(C(=O)NC3CN(C)C3)cc2OC)nc2[nH]cc(-c3ccc4nc(C)oc4c3)c12` [Example 386, 3-methoxy-4-(4-(2-methoxyethoxy)-5-(2-methylbenzo[d]oxazol-6-yl)-7H-pyrrolo[2,3-d]pyrimidin-2-ylamino)-N-(1-methylazetidin-3-yl)benzamide] the IC50 [1] was 1000 to 10000 nM.
`COc1cc(C(=O)NC2COC2)ccc1Nc1nc(OC)c2c(-c3ccnc(C)c3)c[nH]c2n1` [Example 383, 3-methoxy-4-(4-methoxy-5-(2-methylpyridin-4-yl)-7H-pyrrolo[2,3-d]pyrimidin-2-ylamino)-N-(oxetan-3-yl)benzamide] gave an IC50 [1] of under 100 nM.
In the case of `CNC(=O)c1ccc(-c2c[nH]c3nc(Nc4ccc(C(=O)NC5COC5)cc4C)nc(OC4CCC4)c23)cc1` [Example 332, 4-(4-cyclobutoxy-5-(4-(methylcarbamoyl)phenyl)-7H-pyrrolo[2,3-d]pyrimidin-2-ylamino)-3-methyl-N-(oxetan-3-yl)benzamide], the IC50 [1] is reported as under 100 nM.
Work on `COc1cc(C(=O)NC2COC2)ccc1Nc1nc(OC2CC2)c2c(-c3ccc4nc(C)oc4c3)c[nH]c2n1` [Example 369, 4-(4-cyclopropoxy-5-(2-methylbenzo[d]oxazol-6-yl)-7H-pyrrolo[2,3-d]pyrimidin-2-ylamino)-3-methoxy-N-(oxetan-3-yl)benzamide] yielded an IC50 [1] of 100 to 400 nM.
`COc1cc(C(=O)NC2COC2)ccc1Nc1nc(OC)c2c(-c3cc(C)nc(C)c3)c[nH]c2n1` [Example 384, 4-(5-(2,6-dimethylpyridin-4-yl)-4-methoxy-7H-pyrrolo[2,3-d]pyrimidin-2-ylamino)-3-methoxy-N-(oxetan-3-yl)benzamide] showed an IC50 [1] of under 100 nM.
`COc1cc(-c2c[nH]c3nc(Nc4ccc(C(=O)NC5COC5)cc4OC)nc(OC)c23)ccn1` [Example 389, 3-methoxy-4-(4-methoxy-5-(2-methoxypyridin-4-yl)-7H-pyrrolo[2,3-d]pyrimidin-2-ylamino)-N-(oxetan-3-yl)benzamide] showed an IC50 [1] of under 100 nM.
Compound `CNC(=O)c1ccc(Nc2nc(OC3CCCC3)c3c(-c4c(C)noc4C)c[nH]c3n2)c(OC)c1` [Example 321, 4-(4-(cyclopentyloxy)-5-(3,5-dimethylisoxazol-4-yl)-7H-pyrrolo[2,3-d]pyrimidin-2-ylamino)-3-methoxy-N-methylbenzamide] has an IC50 [1] of 1000 to 10000 nM.

From patent publication US9795607B2, “Substituted pyrrolopyrimidine compounds, compositions thereof, and methods of treatment therewith” (Signal Pharmaceutical, LLC, priority 2013, dated 2017)
